In PubChem BioAssay AID248 (DTP/NCI, 2004):
Several values for one entry are separate records, joined by “and”; a condition that tells them apart may be missing. Equal entries are not always repeated. Toxic doses and inconclusive results are not listed. Cut-off read from the data, not from the text of the source: active = T/C of 150% or more; inactive = T/C below 125%.

Test system: L1210 leukemia ip in BDF1 mice, survival T/C
Assay: NCI In Vivo Anticancer Drug Screen. Data for tumor model L1210 Leukemia (intraperitoneal) in B6D2F1 (BDF1) mice
Details: endpoint: mean survival time, higher = longer survival
Outline: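 Transplanted-tumor mice were given test agent; controls received vehicle only. Survival readings from the two groups were divided (treated over control).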

[1] = dose: 100.0 mg/kg/injection, schedule: Q01DX001 (ip), vehicle: carboxymethylcellulose (CMC)
[2] = dose: 100.0 mg/kg/injection, schedule: Q01DX009 (ip), vehicle: Klucel (hydroxypropylcellulose) (HPC)
[3] = dose: 100.0 mg/kg/injection, schedule: Q04DX003 (ip), vehicle: Klucel (hydroxypropylcellulose) (HPC)
[4] = dose: 200.0 mg/kg/injection, schedule: Q01DX009 (ip), vehicle: Klucel (hydroxypropylcellulose) (HPC)
[5] = dose: 200.0 mg/kg/injection, schedule: Q04DX003 (ip), vehicle: Klucel (hydroxypropylcellulose) (HPC)
[6] = dose: 400.0 mg/kg/injection, schedule: Q01DX009 (ip), vehicle: Klucel (hydroxypropylcellulose) (HPC)
[7] = dose: 400.0 mg/kg/injection, schedule: Q04DX003 (ip), vehicle: Klucel (hydroxypropylcellulose) (HPC)
[8] = dose: 100.0 mg/kg/injection, schedule: Q01DX009 (ip), vehicle: gum acacia
[9] = dose: 200.0 mg/kg/injection, schedule: Q01DX009 (ip), vehicle: gum acacia
[10] = dose: 100.0 mg/kg/injection, schedule: Q01DX009 (ip), vehicle: saline with Tween-80
[11] = dose: 100.0 mg/kg/injection, schedule: Q04DX003 (ip), vehicle: saline with Tween-80
[12] = dose: 200.0 mg/kg/injection, schedule: Q04DX003 (ip), vehicle: saline with Tween-80
[13] = dose: 400.0 mg/kg/injection, schedule: Q04DX003 (ip), vehicle: saline with Tween-80
[14] = dose: 100.0 mg/kg/injection, schedule: Q01DX001 (ip), vehicle: saline
[15] = dose: 200.0 mg/kg/injection, schedule: Q01DX001 (ip), vehicle: saline
[16] = dose: 400.0 mg/kg/injection, schedule: Q01DX001 (ip), vehicle: saline

Measured: T/C

Nc1cc(Cl)c(Cl)c(Cl)c1
inactive: dose: 88.8 mg/kg/injection, schedule: Q01DX001 (ip), vehicle: carboxymethylcellulose (CMC) 97 % of control and 100 % of control | [1] 91 % of control | dose: 133.4 mg/kg/injection, schedule: Q01DX001 (ip), vehicle: carboxymethylcellulose (CMC) 94 % of control and 100 % of control | dose: 300.0 mg/kg/injection, schedule: Q01DX001 (ip), vehicle: carboxymethylcellulose (CMC) 97 % of control and 91 % of control | dose: 400.0 mg/kg/injection, schedule: Q01DX001 (ip), vehicle: carboxymethylcellulose (CMC) 91 % of control

C=COC1CCCCC1
inactive: [2] 101 % of control | [3] 97 % of control | [4] 100 % of control | [5] 90 % of control | [6] 95 % of control | [7] 88 % of control

Br/C=C/C[N+]12CN3CN(CN(C3)C1)C2
inactive: dose: 12.5 mg/kg/injection, schedule: Q01DX009 (ip), vehicle: saline 95 % of control | dose: 12.5 mg/kg/injection, schedule: Q04DX003 (ip), vehicle: saline 101 % of control | dose: 25.0 mg/kg/injection, schedule: Q01DX009 (ip), vehicle: saline 101 % of control | dose: 25.0 mg/kg/injection, schedule: Q04DX003 (ip), vehicle: saline 102 % of control | dose: 50.0 mg/kg/injection, schedule: Q01DX009 (ip), vehicle: saline 96 % of control | dose: 50.0 mg/kg/injection, schedule: Q04DX003 (ip), vehicle: saline 98 % of control

CCn1c(N)c(N=O)c(=O)[nH]c1=O
inactive: [8] 95 % of control | [9] 99 % of control

Clc1ccc2nc3nc(-c4ccccc4)c(-c4ccccc4)nc3nc2c1
inactive: dose: 75.0 mg/kg/injection, schedule: Q01DX001 (ip), vehicle: other 98 % of control | dose: 150.0 mg/kg/injection, schedule: Q01DX001 (ip), vehicle: other 98 % of control | dose: 300.0 mg/kg/injection, schedule: Q01DX001 (ip), vehicle: other 96 % of control

CCOc1ccc(/C=N/NC(=O)COCC(=O)N/N=C/c2ccc(OCC)c(OC)c2)cc1OC
inactive: [2] 92 % of control | [4] 87 % of control | [6] 103 % of control

CS(=O)(=O)OCCN(Cc1ccc(OS(C)(=O)=O)cc1)S(C)(=O)=O
inactive: [10] 91 % of control | [11] 109 % of control | dose: 200.0 mg/kg/injection, schedule: Q01DX009 (ip), vehicle: saline with Tween-80 93 % of control | [12] 95 % of control | [13] 109 % of control

CC/C(C)=C\CC/C(C)=C/COc1cccc(OC)c1
inactive: dose: 100.0 mg/kg/injection, schedule: Q04DX002 (ip), vehicle: saline with Tween-80 108 % of control | dose: 200.0 mg/kg/injection, schedule: Q04DX002 (ip), vehicle: saline with Tween-80 101 % of control | dose: 400.0 mg/kg/injection, schedule: Q04DX002 (ip), vehicle: saline with Tween-80 103 % of control

O=C1c2cccc3c2C2(O)c4c1cccc4C(=O)c1cccc(c12)C3=O
inactive: [10] 101 % of control | [11] 96 % of control | dose: 132.0 mg/kg/injection, schedule: Q01DX009 (ip), vehicle: saline 101 % of control | dose: 200.0 mg/kg/injection, schedule: Q01DX009 (ip), vehicle: saline 101 % of control | [12] 100 % of control | dose: 300.0 mg/kg/injection, schedule: Q01DX009 (ip), vehicle: saline 95 % of control | [13] 102 % of control

Cc1ccc(NC(=O)C(Br)C(Br)c2ccccc2)cc1Cl (centres undefined)
inactive: [2] 96 % of control | [4] 92 % of control | [6] 88 % of control

O=Cc1cc2cccnc2s1
inactive: [3] 103 % of control | [5] 100 % of control | [7] 100 % of control

O=C(NC(CSC(c1ccccc1)(c1ccccc1)c1ccccc1)C(=O)O)OCc1ccccc1 (centres undefined)
inactive: dose: 100.0 mg/kg/injection, schedule: Q04DX003 (ip), vehicle: saline 105 % of control | dose: 200.0 mg/kg/injection, schedule: Q04DX003 (ip), vehicle: saline 100 % of control | dose: 400.0 mg/kg/injection, schedule: Q04DX003 (ip), vehicle: saline 105 % of control

CCCCOc1ccc(Nc2c3ccccc3nc3ccccc23)cc1
inactive: [3] 123 % of control

Nc1cc(Cl)c(O)c(Cl)c1
inactive: dose: 12.5 mg/kg/injection, schedule: Q01DX015 (ip), vehicle: saline 97 % of control | dose: 25.0 mg/kg/injection, schedule: Q01DX001 (ip), vehicle: saline with Tween-80 93 % of control | dose: 25.0 mg/kg/injection, schedule: Q01DX015 (ip), vehicle: saline 100 % of control | dose: 50.0 mg/kg/injection, schedule: Q01DX001 (ip), vehicle: saline with Tween-80 92 % of control | dose: 50.0 mg/kg/injection, schedule: Q01DX015 (ip), vehicle: saline 97 % of control | [1] 93 % of control | [14] 93 % of control | dose: 100.0 mg/kg/injection, schedule: Q01DX015 (ip), vehicle: saline 91 % of control

CSCCC(NC(=O)c1ccccc1)C(=O)O (centres undefined)
inactive: [3] 94 % of control | [5] 92 % of control | [7] 94 % of control

CC(=O)Oc1ccc(CC(C(=O)O)c2ccccc2)cc1 (centres undefined)
inactive: [14] 107 % of control | [2] 91 % of control | [3] 100 % of control | [15] 101 % of control | [4] 109 % of control | [5] 96 % of control | [16] 113 % of control | [6] 95 % of control | [7] 96 % of control

c1ccc2cc(C3OCC4(CCC4)CO3)ccc2c1
inactive: dose: 100.0 mg/kg/injection, schedule: Q01DX001 (ip), vehicle: Klucel (hydroxypropylcellulose) (HPC) 94 % of control | dose: 200.0 mg/kg/injection, schedule: Q01DX001 (ip), vehicle: Klucel (hydroxypropylcellulose) (HPC) 104 % of control | dose: 400.0 mg/kg/injection, schedule: Q01DX001 (ip), vehicle: Klucel (hydroxypropylcellulose) (HPC) 104 % of control

CN(C)c1ccc(C=Nc2ccc(O)cc2)cc1
inactive: [14] 88 % of control | [15] 94 % of control | [16] 96 % of control

CC1CCCN(C(=O)Nc2cccc(C(F)(F)F)c2)C1 (centres undefined)
inactive: [8] 100 % of control | [9] 110 % of control | dose: 400.0 mg/kg/injection, schedule: Q01DX009 (ip), vehicle: gum acacia 99 % of control

Nc1ccc(N=Nc2ccccc2)cc1
inactive: dose: 50.0 mg/kg/injection, schedule: Q04DX002 (ip), vehicle: Klucel (hydroxypropylcellulose) (HPC) 105 % of control | dose: 100.0 mg/kg/injection, schedule: Q04DX002 (ip), vehicle: Klucel (hydroxypropylcellulose) (HPC) 105 % of control | dose: 200.0 mg/kg/injection, schedule: Q04DX002 (ip), vehicle: Klucel (hydroxypropylcellulose) (HPC) 97 % of control and 115 % of control | dose: 400.0 mg/kg/injection, schedule: Q04DX002 (ip), vehicle: Klucel (hydroxypropylcellulose) (HPC) 112 % of control

COc1cccc(C(=NC(=O)c2ccccc2)c2ccccc2)c1
inactive: [2] 100 % of control | [4] 97 % of control | [6] 91 % of control

O=C1c2cccc3cc([N+](=O)[O-])cc(c23)C(=O)N1C(CO)(CO)CO
inactive: dose: 100.0 mg/kg/injection, schedule: Q04DX002 (ip), vehicle: saline 101 % of control | dose: 200.0 mg/kg/injection, schedule: Q04DX002 (ip), vehicle: saline 101 % of control | dose: 400.0 mg/kg/injection, schedule: Q04DX002 (ip), vehicle: saline 99 % of control
